Measurements taken from patent publication US4855128A, “Saccharide inhibition of dental plaque” (priority 1988, dated 1989).
Where two headings read alike, the source gives them in different places.

Test system: A. viscosus Tl4V-S. sanguis 34 coaggregation
Test: Coaggregation assay: inhibition of A. viscosus Tl4V-S. sanguis 34 coaggregation
Assay type: cell-based
Details: for IC50: read-out: Concentration to effect 50% inhibition of coaggregation; for Rebound of coaggregation on increasing concentration: at concentrations above the 50% inhibition concentration; for Concentration to effect 50% inhibition of coaggregation: concentration in % (weight/volume basis); for Inhibition of coaggregation (in words): qualitative
Protocol: This Example describes an assay for determining the inhibition of coaggregation by various agents according to the invention and the results obtained thereby.
Streptococcus sanguis strain 34 (originally derived from human dental plaque), and Actinomyces viscosus Tl4V were grown in a medium containing the dialyzable portion of Trypticase and Yeast Extract, supplemented with salts and a carbon source, as follows: A concentrated stock solution (20×, to make 10 liters of growth medium) containing Trypticase Peptone (BBL, 170 grams) and Yeast Extract (40 grams) as prepared in a liter of distilled water. This solution was subsequently ultrafiltered in an Amicon model DC-2 hollow fiber ultrafiltration cell, using an HlP10-20 hollow fiber cartridge (molecular weight cut off of 10,000 daltons), and the filtrate (that material of <10,000 daltons molecular weight) saved. The material was concentrated to a final volume of approximately 100 ml, and then reconstituted to one liter, after which the procedure was repeated for a total of three cycles, saving the filtrates at each step. The filtrates were collected into a vessel chilled on ice, combined, and the total volume measured. This stock solution was distributed in aliquots sufficient to make one liter of medium, and stored at -20° C. until used.
To prepare the growth medium, the appropriate volume of the 10× stock Trypticase-Yeast Extract stock solution was thawed, and to it added (in grams per liter): NaCl, 5, and K2 HPO4, 2.5, and the volume adjusted to 1 liter with distilled water. The medium was sterilized by autoclaving. Where indicated, glucose was added as a carbon source to give a final concentration of 0.2%. Initially, this was done by aseptically adding filter-sterilized glucose solutions to the autoclaved medium. For later experiments, glucose was added to the growth medium prior to sterilization.
Streptococci were grown in medium containing 0.2% glucose. Starter cultures were prepared by inoculation from a frozen stock culture, and incubated overnight at 37° C. under aerobic (not anaerobic) conditions. This starter culture was used as a 0.5-1.0% inoculum to inoculate larger quantities of medium (100 ml-1 liter), which were subsequently incubated for 16 hours at 37° C. Growth conditions were similar for the actinomycete, except that they were grown under an anaerobic environment (10% hydrogen-5% carbon dioxide, and 85% nitrogen). The starter culture was incubated for 24-48 hours, but the larger cultures required 48 hours incubation.
After growth, the cells were collected by centrifugation (10,000 x g, 15 minutes, 4° C.) and washed three times in PBS (phosphate-buffered saline, 0.025 M, pH 8.0 containing 1.46g NaCl per liter). The cells were then suspended in PBS such that when the stock cell suspension was diluted 1:10, it would produce an Absorbance at 660 nm of between 0.22-0.24, equivalent to an initial Absorbance of 2.2-2.4. The cells were stored on ice for use during the day, but warmed to ambient temperature before initiation of coaggregation. Residual cells were stored for further use by resuspension in a solution of 50% glycerol in water, and stored at 4° C. On the day of use, the cells were then collected by centrifugation, washed twice with PBS, and the trubidity adjusted as described above.
Assays were performed in a final volume of 1.0 ml in 190×75 mm disposable culture tubes, in duplicate. Controls consisted of 0.8 ml of either cell suspension, and 0.2 ml PBS. The coaggregating mixtures contained 0.4 ml of each cell suspension, and PBS to make 1.0 ml. Inhibitors were added from stock solutions to give the desired final concentrations, and, where necessary, the salt concentrations adjusted using a double-strength (2X) PBS solution. The mixtures were mixed on a Vortex mixer for 10 seconds at a speed setting of 6, incubated at ambient temperature for 10 minutes, vortexed again, and allowed to stand for 2 hours. […]

[1] = average of two independent experiments

Q: OC[C@H]1O[C@@H](O[C@@H]2[C@@H](CO)OC(O)(CO)[C@H]2O)[C@H](O)[C@@H](O)[C@H]1O (mixture of isomers) [Lactulose, reference compound] was tested. Which IC50 (Actinomyces viscosus, 2 h) did it give?
A: Its IC50 is 35 mM.

Q: For OC[C@H]1OC(O)C[C@@H](O)[C@H]1O (stereo partly drawn) [2-deoxy-D-galactose, reference compound], which IC50 (Actinomyces viscosus, 2 h) is on record?
A: The IC50 was 20 mM.

Q: How did the IC50 (Actinomyces viscosus, 2 h) turn out when C[C@H]1OC(O)[C@H](O)[C@@H](O)[C@H]1O (stereo partly drawn) [D-Fructose (6-deoxy-D-galactose), 6-deoxy-D-galactose, reference compound] was run?
A: The IC50 was 20 mM.

Q: How did the IC50 (Actinomyces viscosus, 2 h) turn out when O=C[C@H](O)[C@@H](O)[C@@H](O)[C@H](O)CO [Galactose, reference compound] was run?
A: The IC50 was 22 mM.

Q: With N[C@H]1C(O)O[C@H](CO)[C@H](O)[C@@H]1O (stereo partly shown) [Galactoseamine, reference compound] as the molecule, how does the IC50 (Table 1 carbohydrates, 2 hours, ambient temperature, average of independent experiments in duplicate (lactose n=13, galactose n=6)) read?
A: Its IC50 is 35 mM.

Q: O=C[C@H](O)[C@@H](O)[C@H](O)[C@H](O)CO [Glucose, reference compound] was tested. Which IC50 (Actinomyces viscosus, 2 h) did it give?
A: Its IC50 is over 100 mM.

Q: For O=C[C@H](O)[C@@H](O)[C@H](O)[C@H](O)C(=O)O [Glucuronic acid], which IC50 (Actinomyces viscosus, 2 h) is on record?
A: Its IC50 is 15 mM.

Q: And the “Rebound of coaggregation on increasing concentration” value?
A: Its value is “then rebounds”.

Q: Which IC50 (Actinomyces viscosus, 2 h) does the source give for O=C(O)[C@H](O)[C@@H](O)[C@H](O[C@@H]1O[C@H](CO)[C@H](O)[C@H](O)[C@H]1O)[C@H](O)CO [Lactobionic acid, 4-[beta-D-galactosido]-D-gluconic acid] here?
A: Its IC50 is 3 to 4 mM.

Q: What about the “Rebound of coaggregation on increasing concentration” value of the same molecule?
A: Its value is “then rebounds”.

Q: And the “Rebound of coaggregation on increasing concentration” value (listed as lactobionic acid)?
A: Its value is “rebound effect”.

Q: What about the “Inhibition of coaggregation at the higher concentration” value (concentration increased up to 100 mM) of the same molecule?
A: Its value is 10%.

Q: With OC[C@H]1O[C@@H](O[C@H]2[C@H](O)[C@@H](O)C(O)O[C@@H]2CO)[C@H](O)[C@@H](O)[C@H]1O (stereo partly shown) [Lactose, reference compound] as the molecule, how does the IC50 (Actinomyces viscosus, 2 h) read?
A: Its IC50 is 3.6 mM.

Q: OC[C@H]1O[C@H](O[C@H]2[C@H](O)[C@@H](O)[C@H](O)O[C@@H]2CO)[C@H](O)[C@@H](O)[C@@H]1O [Maltose, reference compound] was tested. Which IC50 (Actinomyces viscosus, 2 h) did it give?
A: The IC50 was over 100 mM.

Q: With O=C[C@@H](O)[C@@H](O)[C@H](O)[C@H](O)CO [Mannose, reference compound] as the molecule, how does the IC50 (Actinomyces viscosus, 2 h) read?
A: The IC50 was over 100 mM.

Q: With OC[C@H]1O[C@@](CO)(O[C@H]2O[C@H](CO)[C@@H](O)[C@H](O)[C@H]2O)[C@@H](O)[C@@H]1O [Sucrose, reference compound] as the molecule, how does the IC50 (Actinomyces viscosus, 2 h) read?
A: Its IC50 is over 100 mM.

Q: OC[C@H]1O[C@H](O[C@H]2O[C@H](CO)[C@@H](O)[C@H](O)[C@H]2O)[C@H](O)[C@@H](O)[C@@H]1O [Trehalose, reference compound] was tested. Which IC50 (Actinomyces viscosus, 2 h) did it give?
A: Its IC50 is over 100 mM.

Q: Which “Concentration to effect 50% inhibition of coaggregation” value (“Concentration to effect 50% inhibition” below) [1] does the source give for Agar [reference compound] here?
A: The value was over 0.2%.

Q: What about the “Inhibition of coaggregation (in words)” value of the same molecule?
A: Its value is “did not demonstrate inhibition”.

Q: How did the “Concentration to effect 50% inhibition” value [1] turn out when Agarose [reference compound] was run?
A: The value was over 0.2%.

Q: What about the “Inhibition of coaggregation (in words)” value of the same molecule?
A: Its value is “did not demonstrate inhibition”.

Q: Chondroitin sulfate was tested. Which “Inhibition of coaggregation at 4%” value (at 4%) did it give?
A: Its value is about 50%.

Q: And the “Concentration to effect 50% inhibition” value [1]?
A: Its value is 4%.

Q: What about the “Inhibition of coaggregation (in words)” value of the same molecule?
A: The value was “substantial inhibition”.

Q: How did the “Concentration to effect 50% inhibition” value [1] turn out when Guar gum was run?
A: Its value is 0.15%.

Q: Pectin was tested. Which “Inhibition of coaggregation at 0.8%” value (at 0.8%) did it give?
A: The value was about 50%.

Q: What about the “Concentration to effect 50% inhibition” value [1] of the same molecule?
A: Its value is 0.8%.

Q: And the “Inhibition of coaggregation (in words)” value?
A: Its value is “substantial inhibition”.

Q: Polygalacturonic acid was tested. Which “Concentration to effect 50% inhibition” value [1] did it give?
A: The value was 0.1%.

Q: With Sodium alginate as the molecule, how does the “Inhibition of coaggregation at 0.5%” value (at 0.5%, average of two independent experiments) read?
A: Its value is 32%.

Q: What about the “Inhibition of coaggregation (in words)” value of the same molecule?
A: Its value is “substantial inhibition”.

Q: Which “Inhibition of coaggregation at 1.0%” value (at 1.0%, average of two independent experiments) does the source give for Soluble starch [reference compound] here?
A: The value was 8%.

Q: What about the “Inhibition of coaggregation (in words)” value of the same molecule?
A: Its value is “poor inhibition”.

Q: For Xanthan gum, which “Concentration to effect 50% inhibition” value [1] is on record?
A: The value was 0.05%.
